Reference: patent US20190002585A1, “CANCER TREATMENT METHODS AND COMPOSITIONS” (The Cleveland Clinic Foundation, priority 2017, published 2019)
Where a SMILES comes first, the peptide text is derived from it. The star is where a group is joined. Cbz = O=C(OCc1ccccc1)*; CH2F = FC*

What was measured:
WT A549 cells [1] = experiment: Apoptosis assay (caspase 3/7), IncuCyte; type: cell-based, human
Experimental: (§1) Cells were seeded in 96-well plates and treated with Aza as above. The cells were incubated with IncuCyte™ Kinetic Caspase-3/7 Apoptosis Assay Reagent (green) according to manufacturer's protocol and with 250 nM of Syto Red dye (ThermoFisher) for 24 hours. The apoptotic index was determined by determining the total count [green Integrated Intensity (GCU×μm^2/Image)] and then normalizing by count confluence (percent) using IncuCyte software.

WT A549 cells [2] = experiment: Cell death assay, IncuCyte real-time imaging, dual dye; type: cell-based
Experimental: (§2) Cell lines and viruses. Human A549 cells (ATCC® CCL-185™) validated by STR analysis were cultured in RPMI 1640 medium (Gibco) supplemented with 10% fetal bovine serum (FBS), 100U/ml penicillin and 100 μg/ml streptomycin. PC3, DU145 and C4-2 cells were grown in RPMI with 10% FBS. HAEC, BEAS 2B and BETA cells were grown in LHC-8 (Biofluids/Biosource, catalog #P141-500) supplemented with 0.1% epinehrin (Biofluids/Biosource, catalog #355-002), 3.3 mM retinoic acid (Biofluids/Biosource, catalog #348-001) and penicillin-streptomycin-fungizone (Invitogen, catalog #15240-062) and were a gift from Drs. Suzy Comhair and Serpil Erzurum (Cleveland Clinic).
(§3) Cells (20,000 per well) were seeded in 24-well plates or 8,000 cells per well in 96-well plates and treated as stated in figure legends. The cells were incubated with 250 nM Sytox-Green dye (Thermo Fisher), a nucleic acid stain that is an indicator of dead cells and which is impermeant to live cells, and 250 nM of cell permeable dye Syto™ 60-Red (ThermoFisher), which allows quantification of the total number of cells present in each field, using an IncuCyte Live-Cell Imaging System and software (Essen Instruments 2015A) for 72 hours. Cell death was measured by counting the green objects per/well (dead cells, green) and then normalizing to the total number of cells per/well (red objects) at each time point using IncuCyte software.

RNase L KO A549 cells [3] = experiment: as above; type: cell-based, human; design: AZA sensitivity: dose or concentration left out as unconfirmed
Experimental: as §2
(§4) The A549 RNase L KO cells were described previously. Additional knockout cells were generated using the CRISPR Cas9 system. The sgRNA sequences were chosen from a published database. The guide RNA sequences were synthesized as DNA oligonucleotides by IDT. Primers were annealed, phosphorylated and ligated into vector LentiCRISPR v2 (Addgene 52961) that was prepared by digestion with BsmBI. The resulting plasmids were transformed into Stbl3 chemically competent cells (Invitrogen) and grown on a bacterial culture plate at 37° C. Colonies were screened by PCR using the U6 primer and gene specific reverse primer to generate approximately 300 bp product. Positive clones were cultured and plasmid DNA was prepared and sequence verified using the U6 primer. The AKAP7 sgRNA sequences are: sgAKAP7-2 FW CACCGTGAGCGACTGGCCAAAGCAA (SEQ ID NO:1) and sgAKAP7-2 REV AAACTTGCTTTGGCCAGTCGCTCA C (SEQ ID NO:2). The PDE12 sgRNA sequences are: sgPDE12_10.FW CACCGGGATGCCTGGCAAGACGGCG (SEQ ID NO:3) and sgPDE12_10.REV AAACCGCCGTCTTGCCAGGCATCCC (SEQ ID NO:4). Cell cloning was done by limited dilution. The CRISPR vector, pLenti-sgRL-6, was used to knockout RNase L in PC3 cells as we described for RNase L KO A549 cells. To obtain the PDE12/AKAP7 DKO cells, a PDE12 knockout A549 cell line was infected with pseudo lentiviruses expression sgRNA for AKAP7 followed by single cell cloning. The PDE12/RNase L DKO cells were obtained by infecting the RNase L KO A549 cells with the pseudo lentivirus expressing sgRNA for AKAP7 followed by single cell cloning. Resulting clones were screened for knock-out of expression using Western Blots with anti-PDE12 antibody (Abcam ab87738), anti-AKAP7 (Proteintech: Cat#12591-1-AP) antibody or monoclonal antibody against human RNase L [13].
as §3

MAVS KO A549 cells [4] = experiment: Cell death assay, IncuCyte real-time imaging; type: cell-based, human; settings: different doses of AZA, compared with WT
Experimental: as §3, with “SytoTM” for “Syto™”, “[…])” for “2015A)”

[5] = system: MAVS-RNase L DKO A549 cells; experiment: Cell death assay, IncuCyte real-time imaging; type: cell-based, human; settings: concentrations up to 100 uM
Experimental: as §3, with “SytoTM” for “Syto™”, “[…])” for “2015A)”

MAVS KO A549 cells [6] = experiment: Apoptosis assay (caspase 3/7), IncuCyte; type: cell-based, human; settings: 50 uM AZA, compared with WT
Experimental: as §1

[7] = system: MAVS/RNase L DKO A549 cells; experiment: Apoptosis assay (caspase 3/7), IncuCyte; type: cell-based, human; settings: 50 uM AZA
Experimental: as §1

RNase L KO A549 cells [8] = experiment: Apoptosis assay (caspase 3/7), IncuCyte; type: cell-based, human; settings: 50 uM AZA
Experimental: as §1

RNase L KO A549 cells [9] = experiment: PARP cleavage, Western blot; type: cell-based, human; settings: 50 uM AZA for 48 hours
Experimental: (§5) PARP cleavage was monitored in Western blots probed with [anti PAPR1 (rabbit polyclonal) (Santa Cruz Biotechnology)]. β-actin levels were monitored with 3-actin (mouse monoclonal) antibody (Sigma-Aldrich) to evaluated as a control.
(§6) Prior to lysis, cells were washed twice in cold phosphate-buffered saline (PBS). Cell extracts were prepared with lysis buffer supplemented with phosphatase/protease inhibitors followed by incubation on ice for 20 min. Lysates were subjected to centrifugation at 12,000 g for 10 min, and the supernatants collected and protein quantified by Bradford assays (BioRaD). Cell lysates ([…]) were separated on 8% or 10% SDS PAGE gels and proteins were transferred to polyvinylidene difluoride membranes (0.45 μm) (BioRaD) and probed with antibodies according to the different manufacturers' recommendations.

WT A549 cells [10] = experiment: PARP cleavage, Western blot; type: cell-based, human; settings: 50 uM AZA for 48 hours
Experimental: as §5, §6

[11] = system: bronchial epithelial cells BETA; experiment: Cell death assay, IncuCyte live-cell imaging; type: cell-based, human; settings: FIG. 7
Experimental: as §2, §3

[12] = system: bronchial epithelium BEAS 2B cells; experiment: Cell death assay, IncuCyte live-cell imaging; type: cell-based, human; settings: FIG. 7
Experimental: as §2, §3

[13] = system: primary alveolar epithelial cells HAEC; experiment: Cell death assay, IncuCyte live-cell imaging; type: cell-based, human; settings: FIG. 7
Experimental: as §2, §3

[14] = system: C4-2 prostate cancer cells; experiment: Cell death assay, IncuCyte real-time imaging; type: cell-based, human; settings: FIG. 8
Experimental: as §2, §3

[15] = system: DU145 prostate cancer cells; experiment: Cell death assay, IncuCyte real-time imaging; type: cell-based, human; settings: FIG. 8
Experimental: as §2, §3

[16] = system: PC3 prostate cancer cells; experiment: Cell death assay, IncuCyte real-time imaging; type: cell-based, human; settings: FIG. 9
Experimental: as §2, §3

AKAP7 KO A549 cells = experiment: Cell survival, IncuCyte; type: cell-based, human; settings: 50 uM AZA (FIG. 11)
Experimental: as §4, with “To obtain the PDE12/AKAP7 DKO cells, a PDE12 knockout A549 cell line was infected with pseudo lentiviruses expression sgRNA for AKAP7 followed by single cell cloning. The PDE12/RNase L DKO cells were obtained by infecting the RNase L KO A549 cells with the pseudo lentivirus expressing sgRNA for AKAP7 followed by single cell cloning. Resulting clones were screened for knock-out of expression using Western Blots with anti-PDE12 antibody (Abcam ab87738), anti-AKAP7 (Proteintech: Cat#12591-1-AP) antibody or monoclonal antibody against human RNase L [13].” left out
as §3

[17] = system: AKAP7-PDE12 DKO A549 cells; experiment: Cell survival, IncuCyte; type: cell-based, human; settings: 50 uM AZA (FIG. 11)
Experimental: as §4, with “To obtain the PDE12/AKAP7 DKO cells, a PDE12 knockout A549 cell line was infected with pseudo lentiviruses expression sgRNA for AKAP7 followed by single cell cloning. The PDE12/RNase L DKO cells were obtained by infecting the RNase L KO A549 cells with the pseudo lentivirus expressing sgRNA for AKAP7 followed by single cell cloning. Resulting clones were screened for knock-out of expression using Western Blots with anti-PDE12 antibody (Abcam ab87738), anti-AKAP7 (Proteintech: Cat#12591-1-AP) antibody or monoclonal antibody against human RNase L [13].” left out
as §3

PDE12 KO A549 cells = experiment: Cell survival, IncuCyte; type: cell-based, human; settings: 50 uM AZA (FIG. 11)
Experimental: as §4, with “To obtain the PDE12/AKAP7 DKO cells, a PDE12 knockout A549 cell line was infected with pseudo lentiviruses expression sgRNA for AKAP7 followed by single cell cloning. The PDE12/RNase L DKO cells were obtained by infecting the RNase L KO A549 cells with the pseudo lentivirus expressing sgRNA for AKAP7 followed by single cell cloning. Resulting clones were screened for knock-out of expression using Western Blots with anti-PDE12 antibody (Abcam ab87738), anti-AKAP7 (Proteintech: Cat#12591-1-AP) antibody or monoclonal antibody against human RNase L [13].” left out
as §3

[18] = system: RNASEL KO A549 cells with knock-in of WT RNase L; experiment: Cell death assay, IncuCyte, RNase L knock-in; type: cell-based, human; settings: 50 μM AZA for 72 hr
Experimental: (§7) Both WT and R667A RNase L have a FLAG epitope attached. Cells were lysed after 72 hr and proteins were analyzed by Western blot probed with anti-Flag M2 antibody (Sigma-Aldrich) (upper) and anti-β-actin antibody (Sigma-Aldrich) (lower). […] Dead cells and total cells were determined with an IncuCyte real-time imaging system using a dual-dye method. A minimum of three wells were treated with each experimental condition. The data are average±SD from three independent replicates. […] Three separate wells were treated with each experimental condition and a minimum of 4 image fields (>10,000 cells/well) were analyzed per well.
as §3

[19] = system: RNASEL KO A549 cells with knock-in of mutant RNase L (R667A); experiment: Cell death assay, IncuCyte, RNase L knock-in; type: cell-based, human; settings: 50 μM AZA for 72 hr
Experimental: as §7, §3

[20] = system: OAS (1, 2, 3) triple KO HME cells; experiment: Cell death assay, IncuCyte; type: cell-based, human; settings: AZA 50 μM, compared with WT HME
Experimental: as §7, §3

[21] = system: MAVS-ADAR1 DKO A549 cells; experiment: Cell survival, IncuCyte; type: cell-based, human; settings: 50 mM AZA (FIG. 19), compared with WT cells
Experimental: (§8) In FIG. 19 WT, RNase L-ADAR1 DKO, MAVS-ADAR1 DKO, MAVS-ADAR1-RNase L TKO and p150 ADAR1 isoform KO A549 cells were incubated without AZA (panel A) or with […] AZA (panels B and C). Percent survival after […] AZA treatment was calculated using an IncuCyte system. The data are average=±SD from three independent replicates. Similar data were obtained from two additional independent experiments.
as §3

[22] = system: MAVS-ADAR1-RNase L TKO A549 cells; experiment: Cell survival, IncuCyte; type: cell-based, human; settings: 50 μM AZA (FIG. 19)
Experimental: as §8, §3

[23] = system: RNase L-ADAR1 DKO A549 cells; experiment: Cell survival, IncuCyte; type: cell-based, human; settings: 50 mM AZA (FIG. 19)
Experimental: as §8, §3

ADAR1 p150 KO A549 cells = experiment: Cell survival, IncuCyte; type: cell-based, human; design: dose or concentration left out as unconfirmed; settings: AZA (FIG. 19C)
Experimental: as §3

`CC(NC(=O)C(NC(=O)OCc1ccccc1)C(C)C)C(=O)NC(CC(=O)O)C(=O)CF` (stereo not drawn) [Z-VAD] (Cbz-Val-Ala-Asp-CH2F; configuration not given here) was tested, and the “effect on caspase3/7 activation by AZA” value (WT A549 cells [1]; 50 uM Z-VAD in presence of 50 uM AZA) was “greatly suppressed caspase3/7 activation”.

With `Nc1ncn([C@@H]2O[C@H](CO)[C@@H](O)[C@H]2O)c(=O)n1` [AZA, 5-azacytidine] the cell death (WT A549 cells [2]; 50 uM AZA, by 60 hours of treatment) was 85%, the cell survival (WT A549 cells [2]; AZA 25 uM by itself) was 57% and the AZA sensitivity (WT A549 cells [2]; FIG. 7, compared with normal lung epithelia) was “highly sensitive”. The “cytotoxicity of AZA with ionizing radiation” value (WT A549 cells [2]; IR 10 Gy for 10 min, then AZA 25 μM or 12.5 μM for 50 hr) was “potentiates the cytotoxicity of AZA”, the cell death (RNase L KO A549 cells [3]; 50 uM AZA) was 9% and the cell death (RNase L KO A549 cells [3]; 100 uM AZA) was 17%. For the same molecule, the “sensitivity to treatment (cell survival)” value (RNase L KO A549 cells [3]; AZA 25 uM, 2-5A 1 uM transfected, or both) was “completely resistant”, the AZA sensitivity (RNase L KO A549 cells [3]; AZA (FIG. 19)) was “AZA resistant” and the “sensitivity to AZA treatment” value (MAVS KO A549 cells [4]) was “slightly less sensitive”. For the same molecule, the “sensitivity to AZA treatment” value [5] was “almost completely resistant”, the caspase3/7 activation (MAVS KO A549 cells [6]) was “at best only a small effect in reducing caspase3/7 activation” and the caspase3/7 activation [7] was “highly resistant”. The caspase3/7 activation (RNase L KO A549 cells [8]) was “resistant”, the caspase3/7 activation (WT A549 cells [1]; 50 uM AZA) was “high levels of caspase3/7 activation” and the PARP cleavage (RNase L KO A549 cells [9]) was “only a slight increase”. The “cleaved PARP” value (WT A549 cells [10]) was “large increase in cleaved PARP”, the AZA sensitivity [11] was “resistant” and the AZA sensitivity [12] was “resistant”. The AZA sensitivity [13] was “resistant”, the “induction of cell death by AZA” value [14] was “relatively resistant” and the “induction of cell death by AZA” value [15] was “sensitive”. The “induction of cell death by AZA” value [16] was “sensitive”, the cell survival (AKAP7 KO A549 cells) was 56% and the cell survival [17] was 17%. The cell survival (PDE12 KO A549 cells) was 37%, the “sensitivity to AZA treatment” value [18] was “sensitized cells to AZA treatment” and the “sensitivity to AZA treatment” value [19] was “did not”. The “sensitivity to AZA” value [20] was “relatively resistant”, the AZA sensitivity [21] was “enhanced AZA sensitivity” and the AZA sensitivity [22] was “AZA resistant”. The AZA sensitivity [23] was “AZA resistant” and the “cytotoxic effect of AZA” value (ADAR1 p150 KO A549 cells) was “highly sensitive”.
